Laboratory results taken from US10821115B2, “Compounds that inhibit Mcl-1 protein” (priority 2017, dated 2020).
Where two headings read alike, the source gives them in different places.

Columns and labels:
[1] = biological target: recombinant human Mcl-1 (residues 171-327) / Bim interaction (Homo sapiens (Human), UniProt Q07820); test: biochemical; type: binding; details: TR-FRET, Mcl-1(171-327) / biotin-Bim (51-76); read-out: Mcl-1 HTRF IC50
[2] = system: human multiple myeloma cell line, OPM-2; test: Cell viability assay (OPM-2 10 FBS), CellTiter-Glo; type: cell-based
Method in brief: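 Serially diluted test compounds are incubated 16 h with cells (3000/well) in RPMI 1640 supplemented with 10% FBS. Viability is then measured by luminescence and IC50 calculated by 4-parameter logistic fit.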

[3] = read-out: OPM-2 10% FBS IC50 IP, OPM-2 cells, 10% FBS, 16 h, CellTiter-Glo
[4] = Homo sapiens, OPM-2, 16 h, read-out: OPM-2 10% FBS IC50 IP, OPM-2 cells, 10% FBS, 16 h, CellTiter-Glo

Chain of recombinant human Mcl-1 (residues 171-327) / Bim interaction (Q07820 171-327): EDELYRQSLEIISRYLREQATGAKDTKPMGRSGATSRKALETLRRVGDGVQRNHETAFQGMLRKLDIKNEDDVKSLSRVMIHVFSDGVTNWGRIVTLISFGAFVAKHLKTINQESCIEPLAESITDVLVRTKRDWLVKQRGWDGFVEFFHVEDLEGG

SMILES	IC50 [1]	IC50 [2, 3]	IC50 [2, 4]
C[C@@H]1[C@@H](C)C/C=C/[C@@](O)(C#CCCN(C)C)[C@@H]2CC[C@H]2CN2C[C@@]3(CCCc4cc(Cl)ccc43)COc3ccc(cc32)C(=O)NS1(=O)=O [Example 100308, (1S,3′R,6′R,7′S,8′E,11′S,12′R)-6-chloro-7′-(4-(dimethylamino)-1-butyn-1-yl)-7′-hydroxy-11′,12′-dimethyl-3,4-dihydro-2H,15′H-spiro[naphthalene-1,22′-[20]oxa[13]thia[1,14]diazatetracyclo [14.7.2.0~3,6~.0~19,24~]pentacosa[8,16,18,24]tetraen]-15′-one 13′,13′-dioxide]	0.033 nM	1170 nM	
C[C@@H]1[C@@H](C)C/C=C/[C@@](O)(C#CCCN(C)C)[C@@H]2CC[C@H]2CN2C[C@@]3(CCCc4cc(Cl)ccc43)COc3ccc(cc32)C(=O)NS1(=O)=O [Example 100309, (1S,3′R,6′R,7′S,8′E,11′S,12′R)-6-chloro-7′-(4-(dimethylamino)-1-butyn-1-yl)-7′-hydroxy-11′,12′-dimethyl-3,4-dihydro-2H,15′H-spiro[naphthalene-1,22′-[20]oxa[13]thia[1,14]diazatetracyclo [14.7.2.0~3,6~.0~19,24~]pentacosa[8,16,18,24]tetraen]-15′-one 13′,13′-dioxide]	0.244 nM	385 nM	
C[C@@H]1[C@@H](C)C/C=C/[C@@](O)(CC(=O)N2CCN3CCOC[C@H]3C2)[C@@H]2CC[C@H]2CN2C[C@@]3(CCCc4cc(Cl)ccc43)COc3ccc(cc32)C(=O)NS1(=O)=O [Example 100311, (1S,3′R,6′R,7′S,8′E,11′S,12′R)-6-chloro-7′-(2-((9aR)-hexahydropyrazino[2,1-c][1,4]oxazin-8(1H)-yl)-2-oxoethyl)-7′-hydroxy-11′,12′-dimethyl-3,4-dihydro-2H,15′H-spiro[naphthalene-1,22′-[20]oxa[13]thia[1,14]diazatetracyclo [14.7.2.0~3,6~.0~19,24~]pentacosa[8,16,18,24]tetraen]-15′-one 13′,13′-dioxide]	1.03 nM		1190 nM
CO[C@@]1(CS(=O)(=O)C(C)C)/C=C/C[C@H](C)[C@@H](C)S(=O)(=O)NC(=O)c2ccc3c(c2)N(C[C@@H]2CC[C@H]21)C[C@@]1(CCCc2cc(Cl)ccc21)CO3 [Example 100316, (1S,3′R,6′R,7′S,8′E,11′S,12′R)-6-chloro-7′-methoxy-11′,12′-dimethyl-7′-((2-propanylsulfonyl)methyl)-3,4-dihydro-2H,15′H-spiro[naphthalene-1,22′-[20]oxa[13]thia[1,14]diazatetracyclo [14.7.2.0~3,6~.0~19,24~]pentacosa[8,16,18,24]tetraen]-15′-one 13′,13′-dioxide]	0.276 nM	375 nM	
CO[C@]1(CC(=O)N2CC[C@@H](N(C)C)C2)/C=C/C[C@H](C)[C@@H](C)S(=O)(=O)NC(=O)c2ccc3c(c2)N(C[C@@H]2CC[C@H]21)C[C@@]1(CCCc2cc(Cl)ccc21)CO3 [Example 100317, (1S,3′R,6′R,7′R,8′E,11′S,12′R)-6-chloro-7′-(2-((3R)-3-(dimethylamino)-1-pyrrolidinyl)-2-oxoethyl)-7′-methoxy-11′,12′-dimethyl-3,4-dihydro-2H,15′H-spiro[naphthalene-1,22′-[20]oxa[13]thia[1,14]diazatetracyclo [14.7.2.0~3,6~.0~19,24~]pentacosa[8,16,18,24]tetraen]-15′-one 13′,13′-dioxide]	0.188 nM		157 nM
C[C@@H]1[C@@H](C)C/C=C/[C@@](O)(C#CCN2CCOCC2)[C@@H]2CC[C@H]2CN2C[C@@]3(CCCc4cc(Cl)ccc43)COc3ccc(cc32)C(=O)NS1(=O)=O [Example 100320, (1S,3′R,6′R,7′S,8′E,11′S,12′R)-6-chloro-7′-hydroxy-11′,12′-dimethyl-7′-(3-(4-morpholinyl)-1-propyn-1-yl)-3,4-dihydro-2H,15′H-spiro[naphthalene-1,22′-[20]oxa[13]thia[1,14]diazatetracyclo [14.7.2.0~3,6~.0~19,24~]pentacosa[8,16,18,24]tetraen]-15′-one 13′,13′-dioxide]	1.2 nM	2140 nM	
CO[C@]1(CC=O)/C=C/C[C@H](C)[C@@H](C)S(=O)(=O)NC(=O)c2ccc3c(c2)N(C[C@@H]2CC[C@H]21)C[C@@]1(CCCc2cc(Cl)ccc21)CO3 [Example 100322, ((1S,3′R,6′R,7′R,8′E,11′S,12′R)-6-chloro-7′-methoxy-11′,12′-dimethyl-13′,13′-dioxido-15′-oxo-3,4-dihydro-2H-spiro[naphthalene-1,22′-[20]oxa[13]thia[1,14]diazatetracyclo [14.7.2.0~3,6~.0~19,24~]pentacosa[8,16,18,24]tetraen]-7′-yl)acetaldehyde]	2.23 nM		1540 nM
CO[C@@]1(CC=O)/C=C/C[C@H](C)[C@@H](C)S(=O)(=O)NC(=O)c2ccc3c(c2)N(C[C@@H]2CC[C@H]21)C[C@@]1(CCCc2cc(Cl)ccc21)CO3 [Example 100323, ((1S,3′R,6′R,7′S,8′E,11′S,12′R)-6-chloro-7′-methoxy-11′,12′-dimethyl-13′,13′-dioxido-15′-oxo-3,4-dihydro-2H-spiro[naphthalene-1,22′-[20]oxa[13]thia[1,14]diazatetracyclo [14.7.2.0~3,6~.0~19,24~]pentacosa[8,16,18,24]tetraen]-7′-yl)acetaldehyde]	0.477 nM		1250 nM
C[C@@H]1[C@@H](C)C/C=C/[C@@](O)(C#CCCN2CCOCC2)[C@@H]2CC[C@H]2CN2C[C@@]3(CCCc4cc(Cl)ccc43)COc3ccc(cc32)C(=O)NS1(=O)=O [Example 100327, (1S,3′R,6′R,7′S,8′E,11′S,12′R)-6-chloro-7′-hydroxy-11′,12′-dimethyl-7′-(4-(4-morpholinyl)-1-butyn-1-yl)-3,4-dihydro-2H,15′H-spiro[naphthalene-1,22′-[20]oxa[13]thia[1,14]diazatetracyclo [14.7.2.0~3,6~.0~19,24~]pentacosa[8,16,18,24]tetraen]-15′-one 13′,13′-dioxide]	0.295 nM	550 nM	
C[C@@H]1[C@@H](C)CCC[C@](C)([C@H]2OC[C@@H](N(C)C)CO2)[C@@H]2CC[C@H]2CN2C[C@@]3(CCCc4cc(Cl)ccc43)COc3ccc(cc32)C(=O)NS1(=O)=O [Example 100328, (1S,3′R,6′R,7′S,11′S,12′R)-6-chloro-7′-(cis-5-(dimethylamino)-1,3-dioxan-2-yl)-7′,11′,12′-trimethyl-3,4-dihydro-2H,15′H-spiro[naphthalene-1,22′-[20]oxa[13]thia[1,14]diazatetracyclo [14.7.2.0~3,6~.0~19,24~]pentacosa[16,18,24]trien]-15′-one 13′,13′-dioxide]	0.261 nM		180 nM
C[C@@H]1[C@@H](C)CCC[C@@](O)(CC[S@@+](C)[O-])[C@@H]2CC[C@H]2CN2C[C@@]3(CCCc4cc(Cl)ccc43)COc3ccc(cc32)C(=O)NS1(=O)=O [Example 100329, (1S,3′R,6′R,7′R,11′S,12′R)-6-chloro-7′-hydroxy-11′,12′-dimethyl-7′-(2-((R)-methylsulfinyl)ethyl)-3,4-dihydro-2H,15′H-spiro[naphthalene-1,22′-[20]oxa[13]thia[1,14]diazatetracyclo [14.7.2.0~3,6~.0~19,24~]pentacosa[16,18,24]trien]-15′-one 13′,13′-dioxide]	5.02 nM		1560 nM
